Common to all, as to format: biochemical
Experiment [1] deals with T1, MMP-9 (Homo sapiens, UniProt P14780).
T1 construct: purchased R&D Systems 911-MP
The experiment is described as follows: In vitro MMP-9 inhibition test. Conditions: human MMP-9. From the text: (§1) The MMP-mediated amidolytic cleavage of a suitable peptide substrate leads to an increase in fluorescent light here too. The signal intensity of the fluorescent light is directly proportional to the enzyme activity. The active concentration of a test compound at which half the enzyme is inhibited (50% signal intensity of the fluorescent light) is reported as the IC50 value.
(§2) Recombinant MMP-9 (R&D Systems, 911-MP) is chemically activated in accordance with the manufacturer's instructions using APMA. 1 μl of the test compound to be analysed (as a solution in DMSO, suitable concentrations e.g. 1 nM to 30 μM) is pipetted into 24 μl of activated enzyme (final concentration e.g. 0.1 nM) in reaction buffer (50 mM Tris/HCl pH 7.5, 10 mM CaCl2, 150 mM NaCl, 0.05% Brij®-35) in a white 384-hole microtiter plate (MTP). The enzymatic reaction is started by adding the intramolecularly quenched Mca-Pro-Leu-Gly-Leu-Dpa(Dnp)-Ala-Arg-NH2 substrate (final concentration e.g. 10 μM; R&D Systems, ES-001), so as to result in a total test volume of 50 μl. The course of the MMP-9 reaction is measured by measuring the fluorescence intensity (excitation 320 nm, emission 410 nm) over a suitable period of time (e.g. over 120 min at a temperature of 32° C.).

Experiment [2] deals with T2, MMP-2 (Homo sapiens, UniProt P08253).
T2 construct: purchased R&D Systems 902-MP
T2 sequence (P08253 110-660): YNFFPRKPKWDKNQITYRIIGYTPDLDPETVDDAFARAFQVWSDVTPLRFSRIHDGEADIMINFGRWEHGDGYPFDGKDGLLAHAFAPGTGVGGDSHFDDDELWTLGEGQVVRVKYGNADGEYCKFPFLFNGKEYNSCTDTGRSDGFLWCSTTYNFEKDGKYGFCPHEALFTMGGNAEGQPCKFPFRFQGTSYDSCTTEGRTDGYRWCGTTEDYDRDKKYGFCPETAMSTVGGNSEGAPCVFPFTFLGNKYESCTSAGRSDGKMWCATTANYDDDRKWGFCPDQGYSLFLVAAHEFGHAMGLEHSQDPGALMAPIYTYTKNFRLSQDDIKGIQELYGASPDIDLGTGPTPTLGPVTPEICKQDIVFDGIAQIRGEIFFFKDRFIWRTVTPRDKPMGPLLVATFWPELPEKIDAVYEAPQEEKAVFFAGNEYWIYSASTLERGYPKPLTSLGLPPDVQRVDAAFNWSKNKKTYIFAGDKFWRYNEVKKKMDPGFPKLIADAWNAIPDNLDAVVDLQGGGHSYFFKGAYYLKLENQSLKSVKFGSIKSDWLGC
The experiment is described as follows: In vitro MMP-2 inhibition test. The conditions noted are these: human MMP-2.
From the text: as §1
as §2, with “MMP-2” for “MMP-9”, “902-MP)” for “911-MP)”, “2” for “0.1”

In experiment [3] the target is T3, MMP-7 (Homo sapiens, UniProt P09237).
T3 construct: purchased R&D Systems 907-MP
T3 sequence (P09237 95-267): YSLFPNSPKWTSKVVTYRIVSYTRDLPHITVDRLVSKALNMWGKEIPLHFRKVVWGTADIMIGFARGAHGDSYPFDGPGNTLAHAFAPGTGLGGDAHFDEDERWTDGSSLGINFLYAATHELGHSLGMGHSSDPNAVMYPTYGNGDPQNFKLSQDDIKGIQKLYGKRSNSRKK
The experiment is described as follows: In vitro MMP-7 inhibition test. The conditions noted are these: human MMP-7.
From the text: as §1
as §2, with “MMP-7 (from R&D” for “MMP-9 (R&D”, “907-MP)” for “911-MP)”, “0.5” for “0.1”, “MMP-7” for “MMP-9”

For experiment [4], the target named is T4, MMP-13 (Homo sapiens, UniProt P45452).
T4 construct: purchased R&D Systems 511-MP
The experiment is described as follows: In vitro MMP-13 inhibition test. Conditions: human MMP-13.
From the text: as §1
as §2, with “MMP-13” for “MMP-9”, “511-MP)” for “911-MP)”

SMILES strings stand for the structures. pIC50: −log10 of the molar value.

T1 sequence (P14780 107-707 limits assumed): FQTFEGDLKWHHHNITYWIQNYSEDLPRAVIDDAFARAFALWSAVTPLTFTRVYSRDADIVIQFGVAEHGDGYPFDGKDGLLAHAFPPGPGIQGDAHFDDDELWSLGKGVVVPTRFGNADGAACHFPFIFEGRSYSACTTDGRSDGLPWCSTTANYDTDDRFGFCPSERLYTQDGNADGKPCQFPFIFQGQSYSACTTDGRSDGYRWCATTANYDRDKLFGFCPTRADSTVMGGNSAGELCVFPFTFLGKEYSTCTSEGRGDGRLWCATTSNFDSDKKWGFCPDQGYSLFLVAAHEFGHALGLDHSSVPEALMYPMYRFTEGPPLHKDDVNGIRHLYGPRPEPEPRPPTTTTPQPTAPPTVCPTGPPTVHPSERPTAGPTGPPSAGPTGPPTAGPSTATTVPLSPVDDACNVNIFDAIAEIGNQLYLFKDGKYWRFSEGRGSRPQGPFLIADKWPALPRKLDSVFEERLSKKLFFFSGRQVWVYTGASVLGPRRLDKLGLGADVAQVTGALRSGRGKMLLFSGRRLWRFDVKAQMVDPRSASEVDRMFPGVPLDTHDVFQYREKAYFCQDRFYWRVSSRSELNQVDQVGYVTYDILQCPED

On to `O=C(CC(CCn1nnc2ccccc2c1=O)C(=O)O)c1cc2ccc(OCC3CC3)cc2s1` (single isomer, unassigned; (+)) [Example 112, (+)-4-[6-(Cyclopropylmethoxy)-1-benzothiophen-2-yl]-4-oxo-2-[2-(4-oxo-1,2,3-benzotriazin-3(4H)-yl)ethyl]butanoic acid], for which the pIC50 was 6.23 in experiment [1], 6.66 in experiment [2], 5.49 in experiment [3] and 5.89 in experiment [4].

Regarding `O=C(CC(CCn1nnc2ccccc2c1=O)C(=O)O)c1cc2cc(OCc3ccc(F)cc3)ccc2o1` (single isomer, unassigned; (+)) [Example 23, (+)-4-{5-[(4-Fluorobenzyl)oxy]-1-benzofur-2-yl}-4-oxo-2-[2-(4-oxo-1,2,3-benzotriazin-3(4H)-yl)ethyl]butanoic acid], the pIC50 was 4.89 in experiment [1], 5.72 in experiment [2], below 4.40 in experiment [3] and 5.28 in experiment [4].

`O=C(CC(CCn1nnc2ccccc2c1=O)C(=O)O)c1cc2ccc(OCCCC3CCCCC3)cc2o1` (racemic) [Example 71, (+/−)-4-[6-(3-Cyclohexylpropoxy)-1-benzofur-2-yl]-4-oxo-2-[2-(4-oxo-1,2,3-benzotriazin-3(4H)-yl)ethyl]butanoic acid]: the pIC50 was below 4.40 in experiment [1], below 4.40 in experiment [2], below 4.40 in experiment [3] and 4.52 in experiment [4].

Turning to `O=C(CC(CCn1nnc2ccccc2c1=O)C(=O)O)c1cc2ccc(OCCc3ccccc3)cc2s1` (racemic) [Example 114, (+/−)-4-Oxo-2-[2-(4-oxo-1,2,3-benzotriazin-3(4H)-yl)ethyl]-4-[6-(2-phenylethoxy)-1-benzothiophen-2-yl]butanoic acid], the pIC50 in experiment [1] is 6.62; in experiment [2] it was 7.08; in experiment [3], 5.28; in experiment [4] it was 6.60.

As for `CCCCCCCOc1ccc2cc(C(=O)CC(CCn3nnc4ccccc4c3=O)C(=O)O)oc2c1` (single isomer, unassigned; (+)) [Example 69, (+)-4-[6-(Heptyloxy)-1-benzofur-2-yl]-4-oxo-2-[2-(4-oxo-1,2,3-benzotriazin-3(4H)-yl)ethyl]butanoic acid acid], the pIC50 in experiment [1] is 4.89; in experiment [2], 5.54; in experiment [3], below 4.40; in experiment [4], 5.44.

With `O=C(CC(CCn1nnc2ccccc2c1=O)C(=O)O)c1cc2cc(OCc3cccc(Cl)c3)ccc2o1` (racemic) [Example 50, (+/−)-4-{5-[(3-Chlorobenzyl)oxy]-1-benzofur-2-yl}-4-oxo-2-[2-(4-oxo-1,2,3-benzotriazin-3(4H)-yl)ethyl]butanoic acid], the pIC50 in experiment [1] is 4.59; in experiment [2], 5.42; in experiment [3] it was below 4.40; in experiment [4] it was 5.40.

Turning to `O=C(CC(CCn1nnc2ccc(C(F)(F)F)cc2c1=O)C(=O)O)c1noc2cc(OCC3CCOCC3)ccc12` (racemic) [Example 155, (+/−)-4-Oxo-2-{2-[4-oxo-6-(trifluoromethyl)-1,2,3-benzotriazin-3(4H)-yl]ethyl}-4-[6-(tetrahydro-2H-pyran-4-ylmethoxy)-1,2-benzoxazol-3-yl]butanoic acid], the pIC50 is 5.55 in experiment [1], 5.35 in experiment [2], 4.62 in experiment [3] and 5.57 in experiment [4].

With `O=C(CC(CCn1nnc2ccccc2c1=O)C(=O)O)c1cc2cc(OCCc3ccccc3)ccc2o1` (single isomer, unassigned; (+)) [Example 21, (+)-4-Oxo-2-[2-(4-oxo-1,2,3-benzotriazin-3(4H)-yl)ethyl]-4-[5-(2-phenylethoxy)-1-benzofur-2-yl]butanoic acid], the pIC50 in experiment [1] was 5.25; in experiment [2] it was 5.72; in experiment [3], below 4.40; in experiment [4] it was 5.74.
